Laboratory results as given in US20080004296A1, “Organic Compounds” (priority 2004, published 2008).

Tested on: tobacco-smoke-enhanced cough response to 0.3 M citric acid
Assay: Citric acid-induced cough and Penh in tobacco smoke-exposed conscious guinea-pigs (plethysmograph)
Type: in vivo, guinea-pig
Conditions: 1 hour prior to citric acid challenge, mean±s.e. mean; for percentage inhibition of tobacco-smoke-enhanced cough: vs vehicle
Description: Male Dunkin-Hartley guinea-pigs (350-550 g) are exposed to either air or tobacco smoke generated by four research cigarettes, (2R4F; Kentucky, USA) for a 3 second puff every 30 sec, for 2 days. At 24 hours after the last exposure conscious, unrestrained animals are placed in a plethysmograph chamber (Buxco, USA) and challenged with an aerosol of 0.3 M citric acid in 0.9% saline for 10 minutes. Cough and Penh AUC (measure of bronchoconstriction) are recorded during the 10 minute exposure and for a further 10 minutes after exposure using the method described in El-Hashim A. et al. Pulmonary Pharmacology & Therapeutics 17(1) (2004) pages 11-18.
To evaluate the effects of 2-(2-Hydroxy-ethylcarbamoyloxymethyl)-5,7-dimethyl-3-(2-methylsulfamoyl-phenyl)-4-oxo-3,4-dihydro-quinazoline-6-carboxylic acid ethyl ester on the enhanced cough response, animals are dosed subcutaneously with the compound (0.3-10 mg/kg, n=3-10) or vehicle (3:1 PEG200:saline, n=10) at 1 hour prior to citric acid challenge. The percentage inhibition of the cough response following compound administration compared with vehicle administration in tobacco smoke-exposed animals is determined. Data are expressed as mean±s.e. mean and significance is defined as p<0.05 (ANOVA & Dunnett's multiple comparison test).

[1] = 3 mg/kg subcutaneously, significant

Structure (SMILES): CCOC(=O)c1c(C)cc2nc(COC(=O)NCCO)n(-c3ccccc3S(=O)(=O)NC)c(=O)c2c1C [2-(2-Hydroxy-ethylcarbamoyloxy-methyl)-5,7-dimethyl-3-(2-methylsulfamoyl-phenyl)-4-oxo-3,4-dihydro-quinazoline-6-carboxylic acid ethyl ester]
- inhibition of baseline Penh value (measure of bronchoconstriction) (0.3 mg/kg subcutaneously): 48±17%
- percentage inhibition of tobacco-smoke-enhanced cough (0.3 mg/kg subcutaneously): 18±14%
- inhibition of baseline Penh value (measure of bronchoconstriction) (1 mg/kg subcutaneously): 55±19%
- percentage inhibition of tobacco-smoke-enhanced cough (1 mg/kg subcutaneously, significant): 49±17%
- inhibition of baseline Penh value (measure of bronchoconstriction) [1]: 77±10%
- percentage inhibition of tobacco-smoke-enhanced cough [1]: 80±13%
- inhibition of baseline Penh value (measure of bronchoconstriction) (10 mg/kg subcutaneously): 86±2%
- percentage inhibition of tobacco-smoke-enhanced cough (10 mg/kg subcutaneously, significant): 100±0%
